The source of these data is publication PMC4486022 (Cell reports, 2014).

For assay [1], the target named is T1, yIre1 (recombinant yeast IRE1) (Saccharomyces cerevisiae, UniProt P32361).
T1 sequence (P32361 641-1115 limits assumed): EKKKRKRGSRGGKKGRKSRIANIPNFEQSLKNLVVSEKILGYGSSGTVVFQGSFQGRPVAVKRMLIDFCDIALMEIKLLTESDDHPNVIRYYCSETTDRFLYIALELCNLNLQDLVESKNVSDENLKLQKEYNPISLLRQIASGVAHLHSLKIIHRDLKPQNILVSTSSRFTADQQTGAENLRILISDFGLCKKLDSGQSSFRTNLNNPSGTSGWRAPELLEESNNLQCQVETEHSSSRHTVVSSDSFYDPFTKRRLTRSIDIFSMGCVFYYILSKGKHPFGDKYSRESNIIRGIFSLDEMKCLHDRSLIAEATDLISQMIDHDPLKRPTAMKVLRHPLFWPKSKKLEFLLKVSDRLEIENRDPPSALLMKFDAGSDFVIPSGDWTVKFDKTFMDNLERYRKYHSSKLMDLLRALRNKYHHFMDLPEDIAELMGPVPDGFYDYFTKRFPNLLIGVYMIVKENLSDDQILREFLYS
Put plainly: in vitro RNase assay, radiolabeled HAC1 RNA cleavage. Type of assay: biochemical.

Assay [2] addresses T1, yIre1 (recombinant yeast IRE1). Put plainly: in vitro RNase assay, HAC1 and BLOS1 RNA cleavage. The class given is biochemical. The note with it: activator, 100 μM, 1 μM yIre1; Q site at kinase/RNase interface.

With `O=S(=O)(N=Cc1c(O)ccc2ccccc12)c1cccs1` [STF-083010], the IC50 in assay [1] is around 30 µM.
Regarding `O=c1c(O)c(-c2ccc(O)c(O)c2)oc2cc(O)cc(O)c12` [quercetin], the “in vitro RNase assay, HAC1 and BLOS1 RNA cleavage (activation)” value in assay [2] is “binding of Q to Ire1 was sufficient to promote cleavage of RIDD substrate RNA”.
